# Assay results reported in ChEMBL document CHEMBL3885861, “Open TG-GATES”.
# Species: Rattus norvegicus
# Assay: Open TG-GATES - Regimen: Daily Repeat
# Format: toxicity, organism-based, Sprague-Dawley
# Design: regimen Daily Repeat, gender Male, age 6 weeks
# Conditions: in vivo, po, 600 mg/kg, route gavage, dose level High; for ALP / ALT / CRE / DBIL / GLC / IP / K / LDH / Na / PL / RALB / TBIL / TC / TG / TP / gamma-GTP / BUN: tissue Plasma
structure (smiles),measurement,setting,value
CCN(CC)C(=S)SSC(=S)N(CC)CC,TERMINAL_BW,"72 h, time 3 day",211.3 g
same,APTT,"72 h, tissue Blood, time 3 day",23.3 s
same,Bas,"72 h, tissue Blood, time 3 day",0%
same,Eos,"72 h, tissue Blood, time 3 day",0.6%
same,Fbg,"72 h, tissue Blood, time 3 day",405.6 mg/dL
same,Hb,"72 h, tissue Blood, time 3 day",12.6 g/dL
same,Ht,"72 h, tissue Blood, time 3 day",37.8%
same,MCH,"72 h, tissue Blood, time 3 day",20.2 pg
same,MCHC,"72 h, tissue Blood, time 3 day",33.3%
same,MCV,"72 h, tissue Blood, time 3 day",60.9 fL
same,Mono,"72 h, tissue Blood, time 3 day",2.4%
same,PT,"72 h, tissue Blood, time 3 day",15.5 s
same,Plat,"72 h, tissue Blood, time 3 day",118.3 x10_4/uL
same,RBC,"72 h, tissue Blood, time 3 day",623 x10_4/ul
same,Ret,"72 h, tissue Blood, time 3 day",4.4%
same,WBC,"72 h, tissue Blood, time 3 day",61.8 x10_2/uL
same,ALP,"72 h, time 3 day",963 IU/L
same,ALT,"72 h, time 3 day",47.6 IU/L
same,CRE,"72 h, time 3 day",0.1 mg/dL
same,DBIL,"72 h, time 3 day",0.02 mg/dL
same,GLC,"72 h, time 3 day",162 mg/dL
same,IP,"72 h, time 3 day",7.7 mg/dL
same,K,"72 h, time 3 day",3.7 meq/L
same,LDH,"72 h, time 3 day",341.6 IU/L
same,Na,"72 h, time 3 day",144 meq/L
same,PL,"72 h, time 3 day",212.8 mg/dL
same,RALB,"72 h, time 3 day",3 g/dL
same,TBIL,"72 h, time 3 day",0.018 mg/dL
same,TC,"72 h, time 3 day",147.4 mg/dL
same,TG,"72 h, time 3 day",29.4 mg/dL
same,TP,"72 h, time 3 day",5.8 g/dL
same,gamma-GTP,"72 h, time 3 day",1.4 IU/L
same,TERMINAL_BW,"[…], time 7 day",217.6 g
same,TERMINAL_BW,"[…], time 14 day",270 g
same,TERMINAL_BW,"[…], time 28 day",304.2 g
same,APTT,"[…], tissue Blood, time 7 day",25.8 s
same,Bas,"[…], tissue Blood, time 7 day",0%
same,Eos,"[…], tissue Blood, time 7 day",0.5%
same,Fbg,"[…], tissue Blood, time 7 day",408.2 mg/dL
same,Hb,"[…], tissue Blood, time 7 day",13.4 g/dL
same,Ht,"[…], tissue Blood, time 7 day",40%
same,Lym,"[…], tissue Blood, time 7 day",64.8%
same,MCH,"[…], tissue Blood, time 7 day",19.7 pg
same,MCHC,"[…], tissue Blood, time 7 day",33.5%
same,MCV,"[…], tissue Blood, time 7 day",58.8 fL
same,Mono,"[…], tissue Blood, time 7 day",5%
same,Neu,"[…], tissue Blood, time 7 day",28.8%
same,PT,"[…], tissue Blood, time 7 day",18.8 s
same,Plat,"[…], tissue Blood, time 7 day",130.8 x10_4/uL
same,RBC,"[…], tissue Blood, time 7 day",681.5 x10_4/ul
same,Ret,"[…], tissue Blood, time 7 day",4.8%
same,WBC,"[…], tissue Blood, time 7 day",88.4 x10_2/uL
same,APTT,"[…], tissue Blood, time 14 day",22.8 s
same,Bas,"[…], tissue Blood, time 14 day",0%
same,Eos,"[…], tissue Blood, time 14 day",1%
same,Fbg,"[…], tissue Blood, time 14 day",377.4 mg/dL
same,Hb,"[…], tissue Blood, time 14 day",13.4 g/dL
same,Ht,"[…], tissue Blood, time 14 day",38.3%
same,MCH,"[…], tissue Blood, time 14 day",19.6 pg
same,MCHC,"[…], tissue Blood, time 14 day",35%
same,MCV,"[…], tissue Blood, time 14 day",55.9 fL
same,Mono,"[…], tissue Blood, time 14 day",2.4%
same,Neu,"[…], tissue Blood, time 14 day",22.6%
same,PT,"[…], tissue Blood, time 14 day",16.8 s
same,RBC,"[…], tissue Blood, time 14 day",683.8 x10_4/ul
same,Ret,"[…], tissue Blood, time 14 day",5.7%
same,WBC,"[…], tissue Blood, time 14 day",85.1 x10_2/uL
same,APTT,"[…], tissue Blood, time 28 day",20.8 s
same,Bas,"[…], tissue Blood, time 28 day",0%
same,Eos,"[…], tissue Blood, time 28 day",1%
same,Fbg,"[…], tissue Blood, time 28 day",382.2 mg/dL
same,Hb,"[…], tissue Blood, time 28 day",13.4 g/dL
same,Ht,"[…], tissue Blood, time 28 day",38.9%
same,MCH,"[…], tissue Blood, time 28 day",18.9 pg
same,MCHC,"[…], tissue Blood, time 28 day",34.5%
same,MCV,"[…], tissue Blood, time 28 day",54.9 fL
same,Mono,"[…], tissue Blood, time 28 day",2.6%
same,Neu,"[…], tissue Blood, time 28 day",17.8%
same,PT,"[…], tissue Blood, time 28 day",17.4 s
same,Plat,"[…], tissue Blood, time 28 day",99.3 x10_4/uL
same,RBC,"[…], tissue Blood, time 28 day",708.2 x10_4/ul
same,Ret,"[…], tissue Blood, time 28 day",4.8%
same,WBC,"[…], tissue Blood, time 28 day",98.6 x10_2/uL
same,ALP,"[…], time 7 day",563.5 IU/L
same,ALT,"[…], time 7 day",41.8 IU/L
same,BUN,"[…], time 7 day",17.5 mg/dL
same,CRE,"[…], time 7 day",0.2 mg/dL
same,DBIL,"[…], time 7 day",0.0275 mg/dL
same,GLC,"[…], time 7 day",147.5 mg/dL
same,IP,"[…], time 7 day",7.2 mg/dL
same,K,"[…], time 7 day",4.3 meq/L
same,LDH,"[…], time 7 day",354.2 IU/L
same,Na,"[…], time 7 day",145.2 meq/L
same,PL,"[…], time 7 day",201 mg/dL
same,RALB,"[…], time 7 day",2.9 g/dL
same,TBIL,"[…], time 7 day",0.025 mg/dL
same,TG,"[…], time 7 day",16.5 mg/dL
same,TP,"[…], time 7 day",5.8 g/dL
same,gamma-GTP,"[…], time 7 day",2.5 IU/L
same,ALP,"[…], time 14 day",1017.2 IU/L
same,ALT,"[…], time 14 day",34 IU/L
same,BUN,"[…], time 14 day",21 mg/dL
same,CRE,"[…], time 14 day",0.2 mg/dL
same,DBIL,"[…], time 14 day",0.004 mg/dL
same,GLC,"[…], time 14 day",161.2 mg/dL
same,IP,"[…], time 14 day",6.9 mg/dL
same,K,"[…], time 14 day",4.1 meq/L
same,LDH,"[…], time 14 day",173.8 IU/L
same,Na,"[…], time 14 day",142.8 meq/L
same,PL,"[…], time 14 day",178.8 mg/dL
same,RALB,"[…], time 14 day",3.3 g/dL
same,TBIL,"[…], time 14 day",0.024 mg/dL
same,TC,"[…], time 14 day",109.4 mg/dL
same,TG,"[…], time 14 day",29.2 mg/dL
same,TP,"[…], time 14 day",6.2 g/dL
same,gamma-GTP,"[…], time 14 day",2.8 IU/L
same,ALP,"[…], time 28 day",651.8 IU/L
same,ALT,"[…], time 28 day",34.2 IU/L
same,BUN,"[…], time 28 day",19.6 mg/dL
same,CRE,"[…], time 28 day",0.2 mg/dL
same,DBIL,"[…], time 28 day",0.014 mg/dL
same,GLC,"[…], time 28 day",156.8 mg/dL
same,IP,"[…], time 28 day",6.1 mg/dL
same,K,"[…], time 28 day",3.8 meq/L
same,LDH,"[…], time 28 day",159.2 IU/L
same,Na,"[…], time 28 day",143 meq/L
same,PL,"[…], time 28 day",166.6 mg/dL
same,RALB,"[…], time 28 day",3.2 g/dL
same,TBIL,"[…], time 28 day",0.044 mg/dL
same,TC,"[…], time 28 day",112.4 mg/dL
same,TG,"[…], time 28 day",16.2 mg/dL
same,TP,"[…], time 28 day",6.4 g/dL
same,gamma-GTP,"[…], time 28 day",2.8 IU/L
